For 47 compounds, IC50 results are on record in patent publication US8431596B2 (Cancer Research Technology Limited, priority 2007, dated 2013).

pIC50: −log10 of the molar value.

The test has as its target T1, AXL (human catalytic domain) (Homo sapiens, UniProt P30530).
T1 construct: purchased Upstate Ltd. 14-512
T1 sequence (P30530 473-894): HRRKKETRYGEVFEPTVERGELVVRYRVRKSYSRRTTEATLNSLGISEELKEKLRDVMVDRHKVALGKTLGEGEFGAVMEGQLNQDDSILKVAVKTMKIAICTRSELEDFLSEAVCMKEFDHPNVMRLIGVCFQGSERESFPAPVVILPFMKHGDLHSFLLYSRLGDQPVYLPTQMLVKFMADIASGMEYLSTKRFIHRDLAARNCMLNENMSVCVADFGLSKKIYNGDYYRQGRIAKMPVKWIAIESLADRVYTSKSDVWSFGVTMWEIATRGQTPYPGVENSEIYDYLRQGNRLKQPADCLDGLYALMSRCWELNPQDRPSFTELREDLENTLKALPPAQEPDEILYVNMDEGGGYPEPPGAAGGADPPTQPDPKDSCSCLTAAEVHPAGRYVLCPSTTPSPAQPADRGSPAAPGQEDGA
As to the kind of experiment: AXL (human catalytic domain) Enzyme Activity Assay (IMAP fluorescence polarisation). It counts as biochemical. The conditions noted are these: further data set (WW-001 through WW-169, XX-001 through XX-469, YY-001 through YY-016, ZZ-001 through ZZ-003); 150 μM ATP. The gist of the method:
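IMAP FP readout (Ex485/Em535, after overnight binding) measured inhibition of the human AXL catalytic domain (aa473-894, 15 nM final) acting on 100 nM 5FAM-CSK-tide at 150 μM ATP, equal to KM. Reactions ran 60 min at room temperature in pH 7.0 HEPES buffer; IC50 from 10-point curves.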
Background: Fluorescence polarisation rises when a labelled molecule tumbles more slowly, as on binding a larger partner.

`c1ccc(Cn2cc(-c3cccc4nc(Nc5ccc(OCCN6CCCC6)cc5)nn34)cn2)cc1` [XX-193, [5-(1-Benzyl-1H-pyrazol-4-yl)-[1,2,4]triazolo[1,5-a]pyridin-2-yl]-[4-(2-pyrrolidin-1-yl-ethoxy)-phenyl]-amine]: the pIC50 is 6.00 to 7.00.

The compound `COc1ccccc1-c1cccc2nc(Nc3ccc(OCCN4CCCC4)cc3)nn12` [XX-194] showed a pIC50 of 5.00 to 6.00.

Turning to `FC(F)(F)c1ccccc1-c1cccc2nc(Nc3ccc(OCCN4CCCC4)cc3)nn12` [XX-195], the pIC50 is 5.00 to 6.00.

Compound `Oc1cc(F)ccc1-c1cccc2nc(Nc3ccc(OCCN4CCCC4)cc3)nn12` [XX-196] had a pIC50 of 5.00 to 6.00.

In the case of `COc1ncc(-c2cccc3nc(Nc4ccc(OCCN5CCCC5)cc4)nn23)cn1` [XX-197], the negative logarithm of the IC50 (pIC50) was 5.00 to 6.00.

The compound `CN(C)c1ccc(-c2cccc3nc(Nc4ccc(OCCN5CCCC5)cc4)nn23)cn1` [XX-198] had a pIC50 of 6.00 to 7.00.

`COC(=O)c1ccc(-c2cccc3nc(Nc4ccc(OCCN5CCCC5)cc4)nn23)cc1` [XX-199] had a pIC50 of 6.00 to 7.00.

As for `COc1ncccc1-c1cccc2nc(Nc3ccc(OCCN4CCCC4)cc3)nn12` [XX-200], the negative logarithm of the IC50 (pIC50) is 5.00 to 6.00.

In the case of `c1cc(-c2ccsc2)n2nc(Nc3ccc(OCCN4CCCC4)cc3)nc2c1` [XX-201], the pIC50 is 6.00 to 7.00.

Regarding `c1cc(-c2cn[nH]c2)n2nc(Nc3ccc(OCCN4CCCC4)cc3)nc2c1` [XX-202, [5-(1H-Pyrazol-4-yl)-[1,2,4]triazolo[1,5-a]pyridin-2-yl]-[4-(2-pyrrolidin-1-yl-ethoxy)-phenyl]-amine], the pIC50 is 6.00 to 7.00.

`c1coc(-c2cccc3nc(Nc4ccc(OCCN5CCCC5)cc4)nn23)c1` [XX-203] had a pIC50 of 6.00 to 7.00.

Consider `Cc1ccc(-c2cccc3nc(Nc4ccc(OCCN5CCCC5)cc4)nn23)cn1` [XX-204], for which the pIC50 is 5.00 to 6.00.

Regarding `CC(=O)Nc1ccc(-c2cccc3nc(Nc4ccc(OCCN5CCCC5)cc4)nn23)cc1` [XX-205], the pIC50 was 6.00 to 7.00.

Turning to `CN(C)c1ccc(-c2cccc3nc(Nc4ccc(OCCN5CCCC5)cc4)nn23)cc1` [XX-206], the pIC50 was 6.00 to 7.00.

As to `COc1c(C)cc(-c2cccc3nc(Nc4ccc(OCCN5CCCC5)cc4)nn23)cc1C` [XX-207], the pIC50 is 6.00 to 7.00.

In turn, `c1cc(-c2ccc3nonc3c2)n2nc(Nc3ccc(OCCN4CCCC4)cc3)nc2c1` [XX-208] gave a negative-log IC50 (pIC50) of 6.00 to 7.00.

`c1cc(-c2ccc3c(c2)OCCCO3)n2nc(Nc3ccc(OCCN4CCCC4)cc3)nc2c1` [XX-209] showed a pIC50 of 6.00 to 7.00.

For the compound `Clc1cccc(-c2cccc3nc(Nc4ccc(OCCN5CCCC5)cc4)nn23)c1` [XX-210], the pIC50 was 6.00 to 7.00.

In turn, `Clc1ccc(-c2cccc3nc(Nc4ccc(OCCN5CCCC5)cc4)nn23)cc1` [XX-211] had a pIC50 of at least 7.00.

As for `Cc1ccccc1-c1cccc2nc(Nc3ccc(OCCN4CCCC4)cc3)nn12` [XX-212], the pIC50 was 5.00 to 6.00.

Turning to `Cc1cccc(-c2cccc3nc(Nc4ccc(OCCN5CCCC5)cc4)nn23)c1` [XX-213], the pIC50 was 6.00 to 7.00.

For the compound `Cc1ccc2sc(-c3cccc4nc(Nc5ccc(OCCN6CCCC6)cc5)nn34)cc2c1` [XX-214], the pIC50 is 6.00 to 7.00.

The compound `CS(=O)(=O)c1ccc(-c2cccc3nc(Nc4ccc(OCCN5CCCC5)cc4)nn23)cc1` [XX-215, [5-(4-Methanesulfonyl-phenyl)-[1,2,4]triazolo[1,5-a]pyridin-2-yl]-[4-(2-pyrrolidin-1-yl-ethoxy)-phenyl]-amine] showed a pIC50 of 6.00 to 7.00.

The compound `c1ccc(-c2ccc(-c3cccc4nc(Nc5ccc(OCCN6CCCC6)cc5)nn34)cc2)cc1` [XX-216] had a pIC50 of 6.00 to 7.00.

In turn, `COCc1ccc(-c2cccc3nc(Nc4ccc(OCCN5CCCC5)cc4)nn23)cc1` [XX-217] showed a pIC50 of 6.00 to 7.00.

The compound `FC(F)(F)c1ccc(-c2cccc3nc(Nc4ccc(OCCN5CCCC5)cc4)nn23)cc1` [XX-218] showed a negative logarithm of the IC50 (pIC50) of 6.00 to 7.00.

Take `c1cc(-c2ccncc2)n2nc(Nc3ccc(OCCN4CCCC4)cc3)nc2c1` [XX-219]: the pIC50 is 5.00 to 6.00.

`O=C(Nc1ccc(-c2cccc3nc(Nc4ccc(OCCN5CCCC5)cc4)nn23)cc1)c1cccc(Cl)c1` [XX-220] gave a pIC50 of 5.00 to 6.00.

`O=C(Nc1ccc(-c2cccc3nc(Nc4ccc(OCCN5CCCC5)cc4)nn23)cc1)c1ccccc1` [XX-221, N-(4-{2-[4-(2-Pyrrolidin-1-yl-ethoxy)-phenylamino]-[1,2,4]triazolo[1,5-a]pyridin-5-yl}-phenyl)-benzamide] showed a pIC50 of 5.00 to 6.00.

In turn, `O=C(Cc1cccc(Cl)c1)Nc1ccc(-c2cccc3nc(Nc4ccc(OCCN5CCCC5)cc4)nn23)cc1` [XX-222] gave a pIC50 of 5.00 to 6.00.

In the case of `Clc1cccc(CNc2ccc(-c3cccc4nc(Nc5ccc(OCCN6CCCC6)cc5)nn34)cc2)c1` [XX-223, {5-[4-(3-Chloro-benzylamino)-phenyl]-[1,2,4]triazolo[1,5-a]pyridin-2-yl}-[4-(2-pyrrolidin-1-yl-ethoxy)-phenyl]-amine], the pIC50 is 5.00 to 6.00.

Turning to `CS(=O)(=O)Nc1cccc(-c2cccc3nc(Nc4ccc(OCCN5CCCC5)cc4)nn23)c1` [XX-224], the pIC50 is 6.00 to 7.00.

`O=C(Nc1ccc(C(F)(F)F)cc1)Nc1cccc(-c2cccc3nc(Nc4ccc(OCCN5CCCC5)cc4)nn23)c1` [XX-225] had a pIC50 of 5.00 to 6.00.

`c1cc(-c2ccc3c(c2)OCCO3)n2nc(Nc3ccc(SCCN4CCCC4)cc3)nc2c1` [XX-226] gave a pIC50 of 6.00 to 7.00.

Compound `O=C(Cc1cccc(Cl)c1)Nc1cccc(-c2cccc3nc(Nc4ccc(OCCN5CCCC5)cc4)nn23)c1` [XX-227, 2-(3-Chloro-phenyl)-N-(3-{2-[4-(2-pyrrolidin-1-yl-ethoxy)-phenylamino]-[1,2,4]triazolo[1,5-a]pyridin-5-yl}-phenyl)-acetamide] gave a pIC50 of 5.00 to 6.00.

The compound `CC(C(=O)Nc1cccc(-c2cccc3nc(Nc4ccc(OCCN5CCCC5)cc4)nn23)c1)c1cccc(Cl)c1` (centres unmarked) [XX-228] showed a pIC50 of 5.00 to 6.00.

The compound `COc1ccccc1NC(=O)Nc1cccc(-c2cccc3nc(Nc4ccc(OCCN5CCCC5)cc4)nn23)c1` [XX-229] gave a pIC50 of 5.00 to 6.00.

Compound `COc1cccc(NC(=O)Nc2cccc(-c3cccc4nc(Nc5ccc(OCCN6CCCC6)cc5)nn34)c2)c1` [XX-230] showed a pIC50 of 5.00 to 6.00.

The compound `COc1ccc(NC(=O)Nc2cccc(-c3cccc4nc(Nc5ccc(OCCN6CCCC6)cc5)nn34)c2)cc1` [XX-231] showed a pIC50 of 6.00 to 7.00.

`O=C(Nc1cccc(-c2cccc3nc(Nc4ccc(OCCN5CCCC5)cc4)nn23)c1)Nc1ccccc1Cl` [XX-232] had a pIC50 of 5.00 to 6.00.

As to `O=C(Nc1ccc(Cl)cc1)Nc1cccc(-c2cccc3nc(Nc4ccc(OCCN5CCCC5)cc4)nn23)c1` [XX-233], the pIC50 was 5.00 to 6.00.

For `COc1ccc(-c2cccc3nc(Nc4ccc(OCCN5CCCC5)cc4)nn23)nc1` [XX-235], the pIC50 was 6.00 to 7.00.

Consider `CN(C)c1cccc(-c2cccc3nc(Nc4ccc(OCCN5CCCC5)cc4)nn23)c1` [XX-236], for which the pIC50 was 6.00 to 7.00.

In the case of `OCc1ccc(-c2cccc3nc(Nc4ccc(OCCN5CCCC5)cc4)nn23)cc1` [XX-237], the pIC50 was 6.00 to 7.00.

As to `Fc1ccccc1CNc1cccc(-c2cccc3nc(Nc4ccc(OCCN5CCCC5)cc4)nn23)c1` [XX-238], the negative logarithm of the IC50 (pIC50) was 6.00 to 7.00.

On to `CN(C)C(=O)c1ccc(-c2cccc3nc(Nc4ccc(OCCN5CCCC5)cc4)nn23)cc1` [XX-239], for which the pIC50 was 5.00 to 6.00.

`COc1ccc(-c2cccc3nc(Nc4ccc(OCCN5CCCC5)cc4)nn23)cc1F` [XX-240] had a pIC50 of 6.00 to 7.00.

Usually pIC50 stands for the IC50 on a negative log10 scale, so that one unit is a factor of ten.
